Measured values published in US4299970A, “Oxy-alkylamino carboxylic esters” (Beecham Group Limited, priority 1974, dated 1981).
Converted amounts (≈) assume the structure as drawn.

Tests used:
[1] = system: 5-hydroxy-tryptamine-induced bronchoconstriction; assay: inhibition of 5-hydroxytryptamine-induced bronchoconstriction (Konsett-Rossler preparation); assay type: in vivo, guinea pig; details: Cavia porcellus; intravenous, 2 minutes prior to 5-hydroxytryptamine dose
Protocol: a. The compounds were examined for their ability to inhibit 5-hydroxy-tryptamine-induced bronchoconstriction in the anaesthetised, artifically respired guinea pig (Konsett-Rossler preparation).
H. Konsett and R. Rossler, (1940), Naunyn-Schneidebergs Arch. Exp. Path. Pharmak., 195, 71.
After preparation of the guinea pig, a dose of 5-hydroxytryptamine producing an adequate response was determined by dosing, i.v., every 6 minutes. This dose was usually 10 μg. After a standard response was obtained, compounds were given intra-venously 2 minutes prior to the next standard dose and dosing of 5-hydroxytryptamine was continued every 6 minutes until the response returned to control values.

[2] = system: histamine-induced asphyxic collapse; assay: protection against aerosol administered, histamine-induced asphyxic collapse; assay type: in vivo, guinea pig
Description: b. The compounds were examined for their ability to protect against aerosol administered, histamine-induced asphyxic collapse in guinea pigs.
M. A. Wasserman and R. L. Griffen, (1975), Am. Rev. Resp. Dis., 111, 946.

[3] = system: guinea pig platelet aggregation induced by ADP; assay: inhibition of guinea pig platelet aggregation induced in vitro by ADP; assay type: cell-based; details: Cavia porcellus, ADP 5.45×10^-7 M, platelet rich plasma, 37° C.
Protocol: a. The compounds were examined for their ability to inhibit guinea pig platelet aggregation induced, in vitro, by 5.45×10^-7 M adenosine diphosphate (ADP).
The method consisted of diluting the compound immediately before use from a 10 mg/ml solution in ethanol to a 1 mg/ml solution with saline and then adding the appropriate volume to 0.5 ml of platelet rich plasma. The mixture was stirred at 37° C. for 1 minute before 25 μl of an ADP solution was added to give a final ADP concentration of 5.45×10^-7 M. The aggregation response was then recorded relative to the control.

[4] = system: arterial blood pressure; assay: effect on arterial blood pressure in the anaesthetised, normotensive rat; assay type: in vivo; details: intravenous, dose range 0.001 → 1.0 mg/kg
Protocol: a. The effect of the compounds on arterial blood pressure was determined in the anaesthetised, normotensive rat. The rat preparation was similar to that desribed in "Pharmacological experiments on intact preparations", E. and S. Livingstone, Edinburgh and London, 1970, p. 63.
The active compounds were predominantly depressor agents in the normotensive rat.

[5] = system: human platelet aggregation induced by collagen; assay: inhibition of human platelet aggregation induced in vitro by collagen; assay type: cell-based; details: 10^-4 M, collagen, platelet rich plasma, 37° C.
Protocol: b. The compounds were examined for their ability to inhibit human platelet aggregation induced, in vitro, either by adenosine diphosphate (ADP) or collagen. The compounds were added in saline or dimethylformamide to platelet rich plasma at 37° C. to give a final concentration of 10^-4 M. After 3 minutes the platelets were challenged with ADP or collagen. The aggregation response was then recorded relative to the control.

[6] = system: gerbil colon; contraction to prostaglandin F2α; assay: prostaglandin antagonist activity on the isolated perfused gerbil colon (contraction to prostaglandin F2α); details: Meriones unguiculatus; reduction of contraction to prostaglandin F2α; one minute pre-contact time
Protocol: (§1) The compounds were tested for prostaglandin-like and for prostaglandin antagonist activity on the isolated perfused gerbil colon preparation (smooth muscle). This has been shown by J. R. Weeks, J. R. Schultz and W. E. Brown, (1968), J. App. Physiol, 25, 783, to have greater precision and sensitivity than other preparations. A 15 mm portion of the descending colon is suspended in an organ bath and perfused with De Jalon's saline at 32° C. Compounds were given in a three minute cycle with a 45 second contact time and a 15 second washout time. Antagonist compounds were given with a one minute pre-contact time.
Antagonist activity was determined by measuring the percentage reduction of the contraction to two standard doses of prostaglandin F2α which gave responses between 20% and 80% of maximum response.

[7] = system: gerbil colon; assay: prostaglandin-like activity on the isolated perfused gerbil colon; details: De Jalon's saline, 32° C.
Protocol: as §1
Prostaglandin-like activity was determined using the method of H. O. Schlid, (1942), J. Physiol., 101, 115, which is a standard 4×4 latin square assay. Some of the compounds stimulated the gerbil colon to contract which is a prostaglandin-like effect, and the results are shown in Table 15.

[8] = system: pentagastrin-stimulated gastric acid secretion; assay: inhibition of pentagastrin-stimulated gastric acid secretion, anaesthetised perfused rat stomach (Ghosh and Schild preparation); assay type: in vivo; details: intravenous
Description: a. The compounds were examined for their ability to inhibit pentagastrin-stimulated gastric acid secretion in the anaesthetised, perfused rat stomach preparation (Ghosh and Schild preparation).
M. N. Ghosh and H. O. Schild, (1958), Brit. J. Pharmacol, 13, 54.
The compounds were given intravenously.

Row | IC50 [3] [µM] | IC50 [6] [µg/mL] | SMILES | ED50 [1] [mg/kg] | further results
1 | 9 |  | CCCCCCCC(C)(O)CCN1C(=O)CC(=O)C1CCCCCCC(=O)OCC (centres unmarked) [Compound 64, 2-(6'-Ethoxycarbonyl-n-hexyl)-1-(3"-hydroxy-3"-methyl-n-decyl)-pyrrolidin-3,5-dione] | 0.011 | protecting against histamine challenge [2]: very effective
2 |  |  | CCCCCCC(O)CCN1C(=O)CCC(=O)C1CCCCCCC(=O)OCC (centres unmarked) [Compound 78] |  | % Depression at 1 mg/kg [4]: 30%; inhibition at 100 µM [5]: 65%
3 |  | 0.11 (≈ 0.254 µM) | CCCCCC(CCN1CCCC(O)C1CCCCCCCO)OCc1ccccc1 (centres unmarked) [Compound 104, 1-(3'-Benzyloxy-n-octyl)-3-hydroxy-2-(7"-hydroxy-n-heptyl)piperidine] |  | 
4 |  | 2.15 (≈ 5.38 µM) | CCCCCCC(O)CCN1C(=O)CC(O)C1CCCCCCC(=O)OCC (centres unmarked) [Compound 98] |  | 
5 | 55 |  | CCCCCCC(C)(O)CCN1C(=O)CC(O)C1CCCCCCC(=O)OCC (centres unmarked) [Compound 86] | 0.505 | 
6 |  | 0.76 (≈ 1.55 µM) | CCCCCC(CCN1C(=O)CCC(O)C1CCCCCCC(=O)OCC)OCc1ccccc1 (centres unmarked) [Compound 79] |  | 
7 |  |  | CCCCCC(CCN1CCC(O)C1CCCCCCCO)OCc1ccccc1 (centres unmarked) [Compound 101] |  | Concentration/ml. for contractions [7]: 0.04 to 0.10 µg/mL
8 |  |  | CCCCCCCC(C)(O)CCN1C(=O)CCC(=O)C1CCCCCCC(=O)OCC (centres unmarked) [Compound 57, 2-(6'-Ethoxycarbonyl-n-hexyl)-1-(3"-hydroxy-3"-methyl-n-decyl)-piperidin-3,6-dione] | 0.253 | 
9 |  | 3.1 (≈ 7.39 µM) | CCOC(=O)CCCCCCC1C(O)CCC(=O)N1CCCOCc1ccccc1 (centres unmarked) [Compound 80] |  | 
10 |  | 0.35 (≈ 0.963 µM) | OCCCCCCCC1C(O)CCCN1CCCOCc1ccccc1 (centres unmarked) [Compound 103] |  | 
11 | 5.4 |  | CCCCCCC(O)CCN1C(=O)CC(=O)C1CCCCCCC(=O)OCC (centres unmarked) [Compound 77, 2-(6'-ethoxycarbonyl-n-hexyl)-1-(3"-hydroxyn-nonyl)-pyrrolidin-3,5-dione] | 0.38 | ED50 [8]: 2.6 mg/kg; % Depression at 1 mg/kg [4]: 30%
12 | 20 |  | CCCCCC(C)(O)CCN1C(=O)CC(=O)C1CCCCCCC(=O)OCC (centres unmarked) [Compound 62, 2-(6'-Ethoxycarbonyl-n-hexyl)-1-(3"-hydroxy-3"-methyl-n-octyl)-pyrrolidin-3,5-dione] | 0.088 | ED50 [8]: 0.72 mg/kg; % Depression at 1 mg/kg [4]: 70%
13 | 4 |  | CCCCCCC(O)(CC)CCN1C(=O)CC(=O)C1CCCCCCC(=O)OCC (centres unmarked) [Compound 68, 2-(6'-Ethoxycarbonyl-n-hexyl)-1-(3"-hydroxy-3"-ethyl-n-nonyl)-pyrrolidin-3,5-dione] |  | 
